Experimental findings from patent publication US6849599B2, “Combination drug therapy” (priority 2000, dated 2005) are described below.

Series [1] can be described thus: Toxicity and mortality in the treated HT29 xenograft nude mice. Type of series: in vivo. As to the method:
For in vivo studies, nude mice were inoculated subcutaneously in the left axillary region with 5×10^6 HT29 cells. When tumors were palpable (approximately 50 mg), mice were divided into groups (n=15-22) and treated as follows: (i) no treatment; (ii) TSP alone (5-40 mg/kg intraperitoneally) (iii) CPT-11 alone (100-300 mg/kg intraperitoneally); or (iv) TSP (20 mg/kg)+CPT-11 (150 mg/kg). TSP was injected daily while CPT-11 was administered on days 0, 7, 14, and 21. Mice were weighed and tumors measured twice weekly. […] Treated tumor size/Control tumor size (T/C) equaled 0.64 or 0.57, respectively. […] When TSP was combined with CPT-11, a highly significant inhibition of tumor growth was observed compared to control (T/C=0.1, with p=0.00002) and compared to CPT-11 alone (p=0.0008).

The test system of a further series is HT29 cells. The experiment in a line: Tumor growth in nude mice bearing xenografts of human colon tumor cell line HT29. The format is in vivo. The following applies: for Treated tumor size/Control tumor size (T/C): p<0.05. (In xenograft studies the graft and the host belong to different species.)

Protocol for HT29 cells: The antineoplastic activity of TSP plus CPT-11 was evaluated in an art-recognized model for cancer, nude mice bearing xenografts of the human colon tumor cell line HT29.

With `CCc1c2c(nc3ccc(OC(=O)N4CCC(N5CCCCC5)CC4)cc13)-c1cc3c(c(=O)n1C2)COC(=O)[C@]3(O)CC` [CPT-11, 7-ethyl-10-[4-(1-piperidino)-1-piperidino]-carbonloxycamptothecin], the Toxicity and mortality entry in series [1] (CPT-11 alone at 250 mg/kg intraperitoneally) was “induced significant toxicity and mortality”; in series [1] (CPT-11 alone at 300 mg/kg intraperitoneally) it was “induced significant toxicity and mortality”. Moreover, in the series on HT29 cells (CPT-11 alone, all doses (100-300 mg/kg intraperitoneally, days 0, 7, 14, 21), day 28, p<0.001), the “average T/C” value worked out at 0.3.
Turning to Thrombospondin-1 [TSP], the “Treated tumor size/Control tumor size (T/C)” value with HT29 cells (TSP alone 10 mg/kg intraperitoneally daily, day 28) was 0.64; in the series on HT29 cells (TSP alone 20 mg/kg intraperitoneally daily, day 28), 0.57. Further, the “Inhibition of tumor growth, other doses” value with HT29 cells (TSP alone, other doses of 5-40 mg/kg intraperitoneally daily, compared with 10 or 20 mg/kg) was “less effective”.
